From patent US20160228584A1, “18F -GLUTATHIONE CONJUGATE AS A PET TRACER FOR IMAGING TUMORS OR NEUROLOGICAL DISORDERS THAT OVEREXPRESS L-PGDS ENZYME” (National Tsing Hua University, priority 2015, published 2016)

How the values were obtained:
L-PGDS = target: T1, L-PGDS (Homo sapiens, UniProt P41222); assay: Competitive inhibition of the production of PGD2 from PGH2 catalysed by L-PGDS (Cayman kit, EIA readout); assay type: biochemical; details: 200 μM of each test compound; duplicate; read-out: inhibition of the formation of PGD2 from PGH2
T1 construct: purchased Cayman 10006595
T1 sequence (P41222 23-190): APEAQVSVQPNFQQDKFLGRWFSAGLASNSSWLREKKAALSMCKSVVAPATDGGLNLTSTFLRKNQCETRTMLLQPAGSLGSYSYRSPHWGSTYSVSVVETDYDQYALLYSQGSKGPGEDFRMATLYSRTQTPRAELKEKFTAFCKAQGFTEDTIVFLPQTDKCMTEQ

C6 glioma = assay: Cellular uptake of radiotracer in tumor cells; assay type: cell-based
Method: The time point of addition of radio tracer was staggered such that every group could be harvested concurrently. At various times of 0.25, 0.5, 1.5, 3 and 5 h, the collection of the medium was progressing. During harvesting, the radioactive medium was collected from each of the wells, followed by rinsing with PBS […] twice. The medium and rinses (1.5 mL) were combined for counting; the counts were treated as extracellular radioactivity. Subsequently, the cells were lysed with 0.25% trypsin-EDTA ([…]) and the wells were rinsed with PBS twice. Both cells and rinses (1.5 mL) were combined for counting; the counts were treated as intracellular radioactivity. Radioactivity was measured using a scintillation gamma counter (Packard 5000, Packard Instrument Co. laboratory) and decay was corrected. Samples were performed triplicated at each time point for all uptake studies.
The uptake ratio was calculated according to the following expression:
Uptake ratio(%)=Countintracellular=Countextracellular+Countintracellular)×100%

[1] = Ex vivo analysis of biodistribution; assay type: in vivo; details: rat
Text: The specimens included 1) organ tissues such as brain, liver, spleen, heart, kidney, lung, colon, small bowel, stomach, testes, skull, and muscle, and 2) body fluids such as blood and urine. These specimens were submitted for counting the radioactivity using a solid scintillation gamma counter (Packard 5000, Packard Instrument Co. laboratory). The counting value of each specimen was further divided by the sample weight to give the final expression as percentage of injection dose per sample weight (% ID/g).

C6 glioma brain tumor = assay: PET imaging of C6-glioma rat brain tumor; assay type: in vivo; details: tail vein injection, three cross sections
Method: All studies involving animals were conducted in compliance with federal and institutional guidelines. Two weeks before imaging, healthy male SD rats were stereotactically inoculated in the right hemisphere with 1.0×10^5 C6 glioma cells (American Type Tissue Collection).
After C6 glioma cells were injected into the striatum of the SD rats, the animals were placed on heating pad until they have entirely recovered. When the xenografted tumor size has grown to a size of 1-2 mm in diameter, the animals were transferred to the animal facility under control by the research staff every morning. […] Prior to imaging, all rats were affixed with venous and arterial catheters. The in vivo xenograft C6 glioma was imaged 2 weeks after transplantation procedure, until the volume of the tumor reached 3 mm-5 mm in diameter, well-demarcated from normal brain tissue. Regular oral feeding was proceeded after the animals were recovered from anesthesia.
PET scanning experiments were performed within 72 hours of MRI experiment that used to confirm a successful inoculation of tumors by administering [^18F] FBuEA-GS3 via tail vein injection. Both machines of microPET and nanoPET/CT were employed.
Data were collected in list-mode format for 120 minutes. For reconstruction, the dynamic PET acquisition was divided into six 20-min frames over the scanning duration. […]

GST-α = target: T2, GST-α (Homo sapiens, UniProt P08263); assay: Radioligand enzymatic binding assay (gel filtration HPLC); details: GSTA1-1
T2 construct: purchased Pro SpecTany Techno Gene Ltd ENZ-469
T2 sequence (P08263 1-222): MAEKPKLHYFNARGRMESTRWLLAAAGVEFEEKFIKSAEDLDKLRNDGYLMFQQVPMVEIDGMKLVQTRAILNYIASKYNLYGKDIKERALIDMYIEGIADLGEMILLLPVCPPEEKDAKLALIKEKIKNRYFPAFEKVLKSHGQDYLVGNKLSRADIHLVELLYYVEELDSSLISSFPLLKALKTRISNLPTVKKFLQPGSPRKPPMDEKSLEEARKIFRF
Method: (§1) The flow rate was 1 mL/min.
(§2) L-PGDS catalyzes the […] of prostaglandin H2 (PGH2), a metabolite (also known as a prostanoid) derived from arachidonic acid (AA) through oxidation and reduction via the catalysis of COX enzymes. For comparison, mPGES-1, the counterpart of L-PGDS that catalyzes the formation of PGE2 from COX-derived PGH2, was also used in this study. […] Thus, GST-P1 and GST-A1-1 enzymes were only used as negative controls.

GST-π = GST-π (Homo sapiens, UniProt P09211); assay: as above; details: GSTP1
Method: as §1, §2

m-PGES = target: T3, m-PGES (Homo sapiens, UniProt O14684); assay: as above; details: mPGES-1
T3 construct: purchased Cayman Chemical Inc
T3 sequence (O14684 1-152): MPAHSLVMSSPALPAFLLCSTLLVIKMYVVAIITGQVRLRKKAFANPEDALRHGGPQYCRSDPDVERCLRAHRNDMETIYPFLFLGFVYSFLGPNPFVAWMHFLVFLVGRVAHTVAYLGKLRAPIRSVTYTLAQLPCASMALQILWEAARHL
Method: as §1, §2

O=c1ccn([C@@H]2O[C@H](CO)[C@@H](O)[C@H]2O)c(=O)[nH]1 [uridine]
inhibition at 200 µM (L-PGDS): 5.6 ± 14.3%

C=C(CC)C(=O)c1ccc(OCC(=O)NCCCC[18F])c(Cl)c1Cl [[^18F]FbuEA 2, fluorine-18-labeled fluorobutyl ethacrynic amide]
uptake in tumor cells versus normal cells (in words) (C6 glioma; tumor cells compared to normal cell): lower uptake in tumor cells compared to normal cell

CCC(CSC[C@@H](NC(=O)CC[C@@H](N)C(=O)O)C(=O)NCC(=O)O)C(=O)c1ccc(OCC(=O)NCCCC[18F])c(Cl)c1Cl (stereo partly drawn) [[^18F]FBuEA-GS 3, glutathione conjugate of fluorine-18-labeled fluorobutyl ethacrynic amide]
time to reach steady state of accumulation (C6 glioma; cellular uptake): approximately 15 min | radioactivity in the brain ([1]; brain, 1.0-1.5 mCi injected): 0.05 % ID/g | distribution of radioactivity (in words) ([1]; fourteen tissue samples): mainly localized in the excretory system | PET imaging of brain tumor (in words) (C6 glioma brain tumor): clear hot spot coinciding to the tumor region detected by MRI imaging | binding affinity (in words) (GST-α): weak binding affinities | binding affinity (in words) (GST-π): weak binding affinities | binding affinity (in words) (m-PGES): did not show any binding affinity
